Reference: patent publication US20240199651A1, “ANTIBACTERIAL COMPOUNDS” (JANSSEN SCIENCES IRELAND UNLIMITED COMPANY, priority 2021, published 2024)
Where two headings read alike, the source gives them in different places.

Experiment: Mitochondrial toxicity (Glu/Gal) assay
Format: cell-based
Conditions: for Score: mitotoxicity score, Glu/Gal assay; for Δ IC50, glu/IC50, gal: ratio IC50 glu / IC50 gal
Excerpt: The compounds of the invention/examples may have advantages associated with in vitro potency, kill kinetics (i.e. bactericidal effect) in vitro, PK properties, food effect, safety/toxicity (including liver toxicity, coagulation, 5-LO oxygenase), metabolic stability, Ames II negativity, MNT negativity, aqueous based solubility (and ability to formulate) and/or cardiovascular effect e.g. on animals (e.g. anesthetized guinea pig). Data that is generated/calculated may be obtained using standard methods/assays, for instance that are available in the literature or which may be performed by a supplier (e.g. Microsomal Stability Assay—Cyprotex, Mitochondrial toxicity (Glu/Gal) assay—Cyprotex, as well as literature CYP cocktail inhibition assays). GSH can be measured (reactive metabolites, glucuronidation) to observe if a dihydrodiol is observed by LCMS (fragmentation ions), which would correspond to a dihydroxylation on the core heterocycle.

[1] = galactose medium (Glu/Gal mitotoxicity assay), read-out: IC50, gal
[2] = glucose medium (Glu/Gal mitotoxicity assay), read-out: IC50, glu

## CCc1nc2ccc(C)cn2c1C(=O)NCc1ccc(-c2nc3n(n2)CCN(C(C)=O)C3)cc1 [Compound 46]
[1]
  IC50: > 200 µM
[2]
  IC50: > 200 µM

## CCc1nc2cc(N)c(Cl)cn2c1C(=O)NCc1cnc(-c2nc3n(n2)CCN(S(=O)(=O)C(F)(F)F)C3)c(F)c1 [Compound 78]
read-out: IC50, gal
  IC50: > 200 µM
read-out: IC50, glu
  IC50: > 200 µM

## O=C(NCc1ccc(-c2cc3n(n2)CCN(S(=O)(=O)C(F)(F)F)C3)cc1)c1c(C(F)F)nc2ccccn12 [Compound 120]
  Score: [x]3
  Δ IC50, glu/IC50, gal: >8.01
read-out: IC50, gal
  IC50: 25 µM
read-out: IC50, glu
  IC50: > 200 µM

## CCc1nc2ccc(C)cn2c1C(=O)NCc1ccc(-c2nc3n(n2)CCN(S(=O)(=O)N(C)C)C3)cc1 [Compound 51]
[1]
  IC50: > 200 µM
[2]
  IC50: > 200 µM

## Cc1cn2c(C(=O)NCc3ccc(-c4nc5n(n4)CCN(S(=O)(=O)C(F)(F)F)C5)cc3)c(C)nc2s1 [Compound 32]
  Score: [x]3
  Δ IC50, glu/IC50, gal: >12.72
read-out: IC50, gal
  IC50: 15.7 µM
read-out: IC50, glu
  IC50: > 200 µM

## CCc1nc2ncc(C)cn2c1C(=O)NCc1ccc(-c2cc3n(n2)CCN(S(=O)(=O)C(F)(F)F)C3)cn1 [Compound 126]
[1]
  IC50: > 200 µM
[2]
  IC50: > 200 µM

## COCCN1CCn2nc(-c3ccc(CNC(=O)c4c(C5CC5)nc5ncc(C)cn45)cc3)cc2C1 [Compound 101]
[1]
  IC50: > 200 µM
[2]
  IC50: > 200 µM

## CCc1nc2ncc(C)cn2c1C(=O)NCc1ncc(-c2nc3n(n2)CCN(S(=O)(=O)C(F)(F)F)C3)s1 [Compound 64]
[1]
  IC50: > 200 µM
[2]
  IC50: > 200 µM

## CCc1nc2ncc(Cl)cn2c1C(=O)NCc1ccc(-c2cn3c(n2)CN(S(=O)(=O)C(F)(F)F)CC3)cc1 [Compound 90]
[1]
  IC50: > 200 µM
[2]
  IC50: > 200 µM

## Cc1cnc2nc(C3CC3)c(C(=O)NCc3ccc(-c4cc5n(n4)CCN(S(=O)(=O)CC(C)C)C5)cc3)n2c1 [Compound 108]
  Score: [x]0
  Δ IC50, glu/IC50, gal: >1.29
read-out: IC50, gal
  IC50: 38.6 µM
read-out: IC50, glu
  IC50: > 50 µM

## CCc1nc2n(c1C(=O)NCc1ccc(-c3nc4n(n3)CCN(S(=O)(=O)C(F)(F)F)C4)cc1)CCCC2 [Compound 31]
[1]
  IC50: > 200 µM
[2]
  IC50: > 200 µM

## CCc1nc2ccc(C3CC3)cn2c1C(=O)NCc1ccc(-c2nc3n(n2)CCN(S(=O)(=O)C(F)(F)F)C3)cc1 [Compound 27]
  Δ IC50, glu/IC50, gal: 2.34
read-out: IC50, gal
  IC50: 44.5 µM
read-out: IC50, glu
  IC50: 104 µM

## CCc1nc2n(c1C(=O)NCc1ccc(-c3nc4n(n3)CCN(S(=O)(=O)C(F)(F)F)C4)cc1)CCN(C)C2 [Compound 65]
[1]
  IC50: > 200 µM
[2]
  IC50: > 200 µM

## Cc1cnc2nc(C3CC3)c(C(=O)NCc3ccc(-c4cc5n(n4)CCN(C)C5)cc3)n2c1 [Compound 100]
[1]
  IC50: > 200 µM
[2]
  IC50: > 200 µM

## CCc1nc2ncc(C)cn2c1C(=O)NCc1csc(-c2nc3n(n2)CCN(S(=O)(=O)C(F)(F)F)C3)n1 [Compound 73]
read-out: IC50, gal
  IC50: > 200 µM
read-out: IC50, glu
  IC50: > 200 µM

## CCc1nc2cc(Cl)c(C)cn2c1C(=O)NCc1ccc(-c2nc3n(n2)CCN(S(=O)(=O)C(F)(F)F)C3)cc1 [Compound 25]
  Δ IC50, glu/IC50, gal: >2.26
read-out: IC50, gal
  IC50: 22.1 µM
read-out: IC50, glu
  IC50: > 50 µM

## CCc1nc2ncc(C)cn2c1C(=O)NCc1ccc(-c2nc3n(n2)CCN(CCC#N)C3)cc1 [Compound 61]
[1]
  IC50: > 200 µM
[2]
  IC50: > 200 µM

## CCc1nc2cc(C)c(Cl)cn2c1C(=O)NCc1cnc(-c2nc3n(n2)CCN(S(=O)(=O)C(F)(F)F)C3)c(F)c1 [Compound 20]
  Score: [x]1
  Δ IC50, glu/IC50, gal: >1.3
read-out: IC50, gal
  IC50: 154 µM
read-out: IC50, glu
  IC50: > 200 µM

## CCc1nc2cc(C)c(C)cn2c1C(=O)NCc1ccc(-c2nc3n(n2)CCN(S(=O)(=O)C(F)(F)F)C3)cc1 [Compound 23]
[1]
  IC50: > 200 µM
[2]
  IC50: > 200 µM

## CCc1nc2ccc(C)cn2c1C(=O)NCc1ccc(-c2nc3n(n2)CCN(C)C3)cc1 [Compound 56]
[1]
  IC50: > 200 µM
[2]
  IC50: > 200 µM

## CCc1nc2ncc(C)cn2c1C(=O)NCc1ccc(-c2nc3n(n2)CCN(C(C)=O)C3)cc1 [Compound 40]
[1]
  IC50: > 200 µM
[2]
  IC50: > 200 µM

## CCc1nc2ncc(C)cn2c1C(=O)NCc1ccc(-c2nc3n(n2)CCN(CCOC)C3)cc1 [Compound 54]
[1]
  IC50: > 200 µM
[2]
  IC50: > 200 µM

## Cc1cnc2nc(C3CC3)c(C(=O)NCc3ccc(-c4cc5n(n4)CCN(CC(F)(F)F)C5)cc3)n2c1 [Compound 107]
  Score: [x]0
  Δ IC50, glu/IC50, gal: >1.13
read-out: IC50, gal
  IC50: 44.2 µM
read-out: IC50, glu
  IC50: > 50 µM

## Cc1cnc2nc(C3CC3)c(C(=O)NCc3ccc(-c4nn5c(c4C)CN(S(=O)(=O)C(F)(F)F)CC5)cc3)n2c1 [Compound 102]
  Score: [x]3
  Δ IC50, glu/IC50, gal: >6.69
read-out: IC50, gal
  IC50: 29.9 µM
read-out: IC50, glu
  IC50: > 200 µM

## Cc1cnc2nc(C3CC3)c(C(=O)NCc3ccc(-c4cc5n(n4)CCN(S(=O)(=O)C(F)(F)F)C5)nc3)n2c1 [Compound 128]
[1]
  IC50: > 200 µM
[2]
  IC50: > 200 µM

## CCc1nc2ncc(C)cn2c1C(=O)NCc1ccc(-c2nc3n(n2)CCN(C(=O)C(F)(F)F)C3)cc1 [Compound 43]
[1]
  IC50: > 200 µM
[2]
  IC50: > 200 µM

## CCc1nc2ncc(C)cn2c1C(=O)NCc1ccc(N2CCN(c3nc4n(n3)CCN(S(=O)(=O)C(F)(F)F)C4)CC2)cc1 [Compound 70]
read-out: IC50, gal
  IC50: > 50 µM
read-out: IC50, glu
  IC50: > 50 µM

## CCc1nc2ncc(C)cn2c1C(=O)NCc1ccc(C2CCN(c3nc4n(n3)CCN(S(=O)(=O)C(F)(F)F)C4)C2)cc1 (stereo not shown) [Compound 69]
  Score: [x]3
  Δ IC50, glu/IC50, gal: 11.37
read-out: IC50, gal
  IC50: 15.3 µM
read-out: IC50, glu
  IC50: 174 µM

## CCc1nc2ncc(F)cn2c1C(=O)NCc1ccc(-c2nc3n(n2)CCN(S(=O)(=O)C(F)(F)F)C3)c(F)c1 [Compound 17]
[1]
  IC50: > 200 µM
[2]
  IC50: > 200 µM

## CCc1nc2ncc(C)cn2c1C(=O)NCc1ccc(-c2cn3c(n2)CN(S(=O)(=O)C(F)(F)F)CC3)cc1 [Compound 89]
[1]
  IC50: > 200 µM
[2]
  IC50: > 200 µM

## CCc1nc2ncc(C(C)C)cn2c1C(=O)NCc1ccc(-c2nc3n(n2)CCN(S(=O)(=O)C(F)(F)F)C3)cc1 [Compound 26]
[1]
  IC50: > 200 µM
[2]
  IC50: > 200 µM

## CCc1nc2ncc(Cl)cn2c1C(=O)NCc1ccc(-c2cc3n(n2)CCN(S(=O)(=O)C(F)(F)F)C3)cc1 [Compound 91]
  Score: [x]3
  Δ IC50, glu/IC50, gal: >12.85
read-out: IC50, gal
  IC50: 15.6 µM
read-out: IC50, glu
  IC50: > 200 µM

## CCc1nc2ncc(C)cn2c1C(=O)NCc1ccc(-c2nc3n(n2)CCNC3)cc1 [Compound 37]
[1]
  IC50: > 200 µM
[2]
  IC50: > 200 µM

## CCc1nc2ccc(C)cn2c1C(=O)NCc1ccc(-c2nc3n(n2)CCN(CCC#N)C3)cc1 [Compound 62]
[1]
  IC50: > 200 µM
[2]
  IC50: > 200 µM

## CCc1nc2c(F)cc(Cl)cn2c1C(=O)NCc1ccc(-c2nc3n(n2)CCN(S(=O)(=O)C(F)(F)F)C3)cc1 [Compound 21]
  Score: [x]1
  Δ IC50, glu/IC50, gal: 1.65
read-out: IC50, gal
  IC50: 59.4 µM
read-out: IC50, glu
  IC50: 97.9 µM

## CCc1nc2ncc(C)cn2c1C(=O)NCc1ccc(-c2nc3n(n2)CCN(S(=O)(=O)C(F)(F)F)C3)s1 [Compound 57]
[1]
  IC50: > 200 µM
[2]
  IC50: > 200 µM

## CCc1nc2ccc(Cl)cn2c1C(=O)NCc1ccc(-c2cc3n(n2)CCN(S(=O)(=O)C(F)(F)F)C3)cc1 [Compound 118]
  Score: [x]1
  Δ IC50, glu/IC50, gal: >1.57
read-out: IC50, gal
  IC50: 127 µM
read-out: IC50, glu
  IC50: > 200 µM

## CCc1nc2ncc(C)cn2c1C(=O)NCc1ccc(-c2nc3n(n2)CCN(S(=O)(=O)C(F)(F)F)C3)cc1 [Compound 110]
[1]
  IC50: > 100 µM
[2]
  IC50: > 100 µM

## CCc1nc2ncc(C3CC3)cn2c1C(=O)NCc1ccc(-c2nc3n(n2)CCN(S(=O)(=O)C(F)(F)F)C3)cc1 [Compound 28]
read-out: IC50, gal
  IC50: > 200 µM
read-out: IC50, glu
  IC50: > 200 µM

## Cc1cnc2nc(C3CC3)c(C(=O)NCc3cnc(-c4cc5n(n4)CCN(S(=O)(=O)C(F)(F)F)C5)c(F)c3)n2c1 [Compound 125]
[1]
  IC50: > 200 µM
[2]
  IC50: > 200 µM

## CCc1nc2ccc(Cl)cn2c1C(=O)NCc1ccc(-c2nc3n(n2)CCN(S(=O)(=O)C(F)(F)F)C3)c(F)c1 [Compound 3]
  Score: [x]1
  Δ IC50, glu/IC50, gal: 0.91
read-out: IC50, gal
  IC50: 73.1 µM
read-out: IC50, glu
  IC50: 66.2 µM

## CCc1nc2ccc(C)cn2c1C(=O)NCc1ccc(-c2nc3n(n2)CCN(CCOC)C3)cc1 [Compound 55]
  Score: [x]1
  Δ IC50, glu/IC50, gal: >1.15
read-out: IC50, gal
  IC50: 174 µM
read-out: IC50, glu
  IC50: > 200 µM

## Cc1cnc2nc(C3CC3)c(C(=O)NCc3cnc(-c4nc5n(n4)CCN(S(=O)(=O)C(F)(F)F)C5)c(F)c3)n2c1 [Compound 130]
[1]
  IC50: > 200 µM
[2]
  IC50: > 200 µM

## Cc1c(-c2ccc(CNC(=O)c3c(C(F)(F)F)nc4ccccn34)cc2)nn2c1CN(S(=O)(=O)C(F)(F)F)CC2 [Compound 121]
  Δ IC50, glu/IC50, gal: >4.31
read-out: IC50, gal
  IC50: 46.4 µM
read-out: IC50, glu
  IC50: > 200 µM

## CCc1nc2ncc(Cl)cn2c1C(=O)NCc1cnc(-c2nc3n(n2)CCN(S(=O)(=O)C(F)(F)F)C3)c(F)c1 [Compound 77]
read-out: IC50, gal
  IC50: > 200 µM
read-out: IC50, glu
  IC50: > 200 µM

## COCCS(=O)(=O)N1CCn2nc(-c3ccc(CNC(=O)c4c(C5CC5)nc5ncc(C)cn45)cc3)cc2C1 [Compound 109]
[1]
  IC50: > 50 µM
[2]
  IC50: > 50 µM

## O=C(NCc1ccc(-c2cn3c(n2)CN(S(=O)(=O)C(F)(F)F)CC3)cc1)c1c(C(F)(F)F)nc2ccccn12 [Compound 115]
  Δ IC50, glu/IC50, gal: >3.08
read-out: IC50, gal
  IC50: 64.8 µM
read-out: IC50, glu
  IC50: > 200 µM

## CCc1nc2nc3c(cn2c1C(=O)NCc1ccc(-c2nc4n(n2)CCN(S(=O)(=O)C(F)(F)F)C4)cc1)CCC3 [Compound 45]
[1]
  IC50: > 100 µM
[2]
  IC50: > 100 µM
